Experimental data published in patent EP4696691A1, “TRICYCLIC COMPOUND, AND PREPARATION METHOD THEREFOR AND USE THEREOF” (Shanghai Huilun Pharmaceutical Co., Ltd., priority 2023, dated 2024).
pIC50: −log10 of the molar value. Where two headings read alike, the source gives them in different places.

Legend:
[1] = Pharmacokinetic behavior in mice (plasma concentration by LC-MS/MS); assay type: in vivo; conditions: male ICR mice; for Vd: read-out: Vss
Protocol: (§1) Three healthy ICR mice (SPF grade, from Beijing Vital River Laboratory Animal Technology Co., Ltd.), male, weighing 18-25 g, were intravenously injected with a compound (1 mg/kg) at a volume of 5 mL/kg. The compound was prepared using 5% DMSO+10% Solutol+85% Saline (w/v), and the animals were not fasted before the experiment.
as §1, with “were intragastrically administered” for “were intravenously injected with”, “compound (5” for “compound (1”, “of 10” for “of 5”
Blood samples (about 0.05 mL each) were collected from the cheeks at 5 min, 15 min, 30 min, 1 h, 2 h, 4 h, 6 h, 8 h, and 24 h after intravenous administration, and at 5 min, 15 min, 30 min, 1 h, 2 h, 4 h, 6 h, 8 h, and 24 h after intragastrical administration, and anticoagulated with heparin sodium. Following collection, the blood samples were placed on ice and the plasma was centrifuged within 1 h (centrifugation conditions: 6,000 g, 3 min, 2 °C to 8°C). The concentration of the compounds in the plasma was determined by liquid chromatography tandem mass spectrometry. The plasma samples were stored in a -80°C freezer before analysis. With plasma concentration data at different time points, pharmacokinetic parameters were calculated by Phoenix WinNonlin8.2.0, and the results are shown in Table 4: Table 4

[2] = target: T1, IRAK4-HiBiT fusion protein (Homo sapiens, UniProt Q9NWZ3); assay: Detection of HiBiT-IRAK4 proteolysis levels in K562 IRAK4-HiBiT cells (Nano-Glo HiBiT Lytic assay); assay type: cell-based
T1 construct: K562 from ATCC
T1 sequence (Q9NWZ3 1-460): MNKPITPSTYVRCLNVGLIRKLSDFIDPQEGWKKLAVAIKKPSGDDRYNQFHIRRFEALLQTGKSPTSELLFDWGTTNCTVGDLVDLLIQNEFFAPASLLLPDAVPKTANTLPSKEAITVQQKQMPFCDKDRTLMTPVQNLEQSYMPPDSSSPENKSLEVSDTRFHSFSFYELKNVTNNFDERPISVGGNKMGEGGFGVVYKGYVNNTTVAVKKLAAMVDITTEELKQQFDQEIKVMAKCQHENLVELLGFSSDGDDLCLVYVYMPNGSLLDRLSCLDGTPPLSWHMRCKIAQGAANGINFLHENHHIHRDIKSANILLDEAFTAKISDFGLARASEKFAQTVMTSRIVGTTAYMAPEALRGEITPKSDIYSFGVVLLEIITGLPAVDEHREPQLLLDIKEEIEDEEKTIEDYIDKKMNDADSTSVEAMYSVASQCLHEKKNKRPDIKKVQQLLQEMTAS
Protocol: Test Example 1 Detection of HiBiT-IRAK4 proteolysis levels in K562 IRAK4-HiBiT cells co-incubated with compounds of the present application • Reagents, devices, and consumables in experiments: • Nano-Glo Lytic Detection Assay, purchased from Promega; • EnVision, purchased from PerkinElmer; • Name of cell line: K562 IRAK4-HiBiT stable transformation cell strain (capable of stably expressing IRAK4-HiBiT fusion protein), constructed by Shanghai Bioduro Biologics Co., Ltd., where a K562 cell strain was purchased from ATCC. The culture medium is IMDM+10% FBS+1% P/S (volume percentage, where FBS is fetal bovine serum and P/S is Penicillin-Streptomycin, a 1:1 mixture of penicillin and streptomycin antibiotic solution (10,000 units/mL)).
Cell culture: K562 IRAK4-HiBiT cells were incubated at 37°C, and passaged every 2-3 d, with a seeding density of 200,000 cells/mL.
IRAK4-HiBiT proteolysis experiment: • Step 1: Cell seeding and treatment of compound • 1. A 10 mM compound mother liquor was prepared using DMSO, and a compound solution with a working concentration of 1,000 times (the highest working concentration is 10 µM, diluted 3.162 times, with a total of 10 concentration gradients) was prepared using Bravo automatic liquid processing platform. • 2. 40 nL of a compound working solution was transferred to a 384 well plate, and an equal volume of DMSO was added to positive control wells. • 3. 20 µL of a culture solution was added per well and shaken for 10 min. • 4.20 µL of a K562 IRAK4-HiBiT cell suspension was added per well (6,000 cells/well), and an equal volume of culture medium was added to negative control wells. • 5. The well plate was rotated at 1,000 rpm for 1 min. • 6. The cells were incubated in a 5% CO2 incubator at 37°C for 2 h or 6 h. • Step 2: HiBiT Lytic experiment • 1. The well plate was placed at room temperature to equilibrate for 30 min. • 2. 20 µL of Nano-Glo HiBiT Lytic reagent (trade name: Nano-Glo® HiBiT Lytic Detection Reagent) and the well plate was kept in the dark. • 3. The well plate was placed on an orbital shaker at 300 rpm for 5 min. • 4. The cells were incubated at room temperature for 10 min. • 5. The luminous value was read by Envision. • 6. Data was calculated and processed. Degradation degree%=(negative control - experimental well)/(negative control - positive control) * 100%. Using XL-fit software, a degradation curve was obtained by fitting using a 4 Parameter Logistic Model, and the values of Relative DC50 (nM) and Absolute DC50 (nM) were obtained.

[3] = test system: LPS induced IL-6 release in human PBMC cells; assay: Inhibition of LPS induced IL-6 release in human PBMC cells (IL-6 HTRF assay); assay type: cell-based; conditions: 2 h compound pre-incubation, LPS 5 ng/mL for 4 h, IL-6 in supernatant
Protocol: I. Recovery and seeding of PBMC, and treatment of compounds (human PBMC cells were purchased from Oricell, item number: Fpb003F)
• 1. Preparation of compounds Sample dilutions of a series of concentrations were obtained by dilution in DMSO using Bravo, and then 80 nL was transferred into a cell plate using ECHO. The final concentration of DMSO in the cell culture medium is 0.1%. • 2. Frozen cells were quickly thawed in a 37°C water bath and stirred continuously. • 3. 25 mL of fresh preheated culture medium was added into a 50 mL centrifuge tube, and then the cells were added dropwise. Then the cells were centrifuged at 2,000 rpm for 10 min. • 4. […] The total number of cells required was calculated based on cell concentration to perform the assay. 7×10e4 cells were added per well (70 µL). • 6. The cell plate was placed and incubated in a 5% CO2 incubator at 37°C for 2 h.
• 1. LPS: A stock solution (1 mg/mL) was diluted in dH2O, aliquoted, and stored at -80°C. • 2. 8-fold LPS was added per well (10 µl/well) (with a final concentration of 5 ng/mL). The cells were incubated in a 5% CO2 incubator at 37°C for 4 h. • 3. 70 µl of supernatant was collected per well using Bravo, and then IL-6 HTRF assay was performed. The supernatant may be stored at -80°C.
1. Preparation of standards and sample dilutions. 2. 16 µL of each sample was taken using Bravo and added to wells. Then 16 µL of each standard was taken and added to corresponding wells. 3.4 µL of a premixed IL6 antibody working solution was added to each of all wells. 4. The cell plate was sealed and incubated at room temperature for 2 h. 5.

[4] = Intragastric administration (5 mg/kg), 5 mg/kg
[5] = Intravenous injection (1 mg/kg), 1 mg/kg
[6] = 2 h incubation, read-out: Absolute DC50
[7] = 2 h incubation, read-out: Relative DC50
[8] = Intragastric administration (5 mg/kg)
[9] = Intravenous injection (1 mg/kg)
[10] = mouse, plasma, po, Intragastric administration (5 mg/kg)
[11] = mouse, plasma, po, Intragastric administration (5 mg/kg), read-out: Cmax
[12] = mouse, plasma, Intravenous injection (1 mg/kg)
[13] = mouse, plasma, Intravenous injection (1 mg/kg), read-out: Cmax

CC(C)(O)c1cc2nn([C@H]3CC[C@H](CCN4CCN5c6ccc(C7(C)CCC(=O)NC7=O)cc6OC[C@H]5C4)CC3)cc2cc1NC(=O)c1cccc(C(F)(F)F)n1 (single isomer, unassigned) [Compound 120-b-2]
AUClast [1, 4]: 24277 ng·h/mL
Cmax [1, 4]: 1790 ng/mL
F% [1, 4]: 98.6%
T1/2 [1, 4]: 9.45 h
AUClast [1, 5]: 4925 ng·h/mL
CL [1, 5]: 3.03 mL/min/kg
Cmax [1, 5]: 725 ng/mL
Vss [1, 5]: 1.80 L/kg
Dmax ([2]; 2 h incubation): 93%
DC50 [2, 6]: 23700 pM
DC50 [2, 7]: 21400 pM
pIC50 [3]: 9.12

CC(C)(O)c1cc2nn([C@H]3CC[C@H](CCN4CCN5c6ccc(C7CCC(=O)NC7=O)cc6OC[C@@H]5C4)CC3)cc2cc1NC(=O)c1cccc(C(F)(F)F)n1 (stereo partly drawn) [Compound 1-a]
AUClast [1, 8]: 19336 ng·h/mL
Cmax [1, 8]: 1067 ng/mL
F% [1, 8]: 31.7%
T1/2 [1, 8]: 17.5 h
AUClast [1, 9]: 8794 ng·h/mL
CL [1, 9]: 1.25 mL/min/kg
Cmax [1, 9]: 832 ng/mL
Vss [1, 9]: 1.64 L/kg
Dmax ([2]; 2 h incubation): 90%
DC50 [2, 6]: 420 pM
DC50 [2, 7]: 580 pM
pIC50 [3]: 9.04

CC(C)(O)c1cc2nn([C@H]3CC[C@H](CCN4CCN5c6ccc(C7CCC(=O)NC7=O)cc6OC[C@H]5C4)CC3)cc2cc1NC(=O)c1cccc(C(F)(F)F)n1 (stereo partly drawn) [Compound 1-b]
AUClast [1, 8]: 44547 ng·h/mL
Cmax [1, 8]: 2623 ng/mL
F% [1, 8]: 79.5%
T1/2 [1, 8]: 15.3 h
AUClast [1, 9]: 11208 ng·h/mL
CL [1, 9]: 1.0 mL/min/kg
Cmax [1, 9]: 1083 ng/mL
Vss [1, 9]: 1.23 L/kg
Dmax ([2]; 2 h incubation): 88%
DC50 [2, 6]: 540 pM
DC50 [2, 7]: 710 pM
pIC50 [3]: 9.07

CC(C)(O)c1cc2nn([C@H]3CC[C@H](CCN4CCN5c6ccc(C7CCC(=O)NC7=O)cc6OCC5C4)CC3)cc2cc1NC(=O)c1cccc(C(F)(F)F)n1 (stereo partly drawn) [Compound 1]
AUClast [1, 8]: 82491 ng·h/mL
Cmax [1, 8]: 5153 ng/mL
F% [1, 8]: 93.86%
T1/2 [1, 8]: 8.03 h
AUClast [1, 9]: 12937 ng·h/mL
CL [1, 9]: 0.905 mL/min/kg
Cmax [1, 9]: 1740 ng/mL
Vss [1, 9]: 1.05 L/kg
Dmax ([2]; 6 h incubation): 91.1%
DC50 ([2]; read-out: Absolute DC50, 6 h incubation): 610 pM
DC50 ([2]; read-out: Relative DC50, 6 h incubation): 460 pM
pIC50 [3]: 8.94

CC(C)(O)c1cc2nn([C@H]3CC[C@H](CCN4CCN5c6c(F)cc(C7CCC(=O)NC7=O)cc6OCC5C4)CC3)cc2cc1NC(=O)c1cccc(C(F)(F)F)n1 (stereo partly drawn) [Compound 4]
AUC(0-t) [1, 10]: 34200 ng·h/mL
bioavailability [1, 10]: 60.1%
half-life [1, 10]: 14.8 h
Cmax [1, 11]: 2130 ng/mL
AUC(0-t) [1, 12]: 10500 ng·h/mL
clearance [1, 12]: 1.27 mL/min/kg
Cmax [1, 13]: 1320 ng/mL
Vd [1, 12]: 1.07 L/kg
Dmax ([2]; 2 h incubation): 90%
DC50 [2, 6]: 9850 pM
DC50 [2, 7]: 8710 pM
pIC50 [3]: 8.39

COc1cc2nn([C@H]3CC[C@H](CCN4CCC5(CC4)OCc4cc(C6CCC(=O)NC6=O)ccc45)CC3)cc2cc1NC(=O)c1cccc(C(F)(F)F)n1 (stereo partly drawn) [Compound 46]
AUClast [1, 8]: 3815 ng·h/mL
Cmax [1, 8]: 207 ng/mL
F% [1, 8]: 68.7%
T1/2 [1, 8]: 27.3 h
AUClast [1, 9]: 932 ng·h/mL
CL [1, 9]: 6.80 mL/min/kg
Cmax [1, 9]: 128 ng/mL
Vss [1, 9]: 21.4 L/kg
Dmax ([2]; 6 h incubation): 93.6%
DC50 ([2]; 6 h incubation, read-out: Absolute DC50): 920 pM
DC50 ([2]; 6 h incubation, read-out: Relative DC50): 790 pM
pIC50 [3]: 7.86

CC(C)(O)c1cc2nn([C@H]3CC[C@H](CCN4CCC5(CC4)OC(=O)c4cc(C6CCC(=O)NC6=O)ccc45)CC3)cc2cc1NC(=O)c1cccc(C(F)(F)F)n1 (stereo partly drawn) [Compound 93]
AUC(0-t) [1, 10]: 9150 ng·h/mL
bioavailability [1, 10]: 29.5%
half-life [1, 10]: 4.19 h
Cmax [1, 11]: 844 ng/mL
AUC(0-t) [1, 12]: 6210 ng·h/mL
clearance [1, 12]: 2.98 mL/min/kg
Cmax [1, 13]: 783 ng/mL
Vd [1, 12]: 0.958 L/kg
Dmax ([2]; 2 h incubation): 94%
DC50 [2, 6]: 740 pM
DC50 [2, 7]: 930 pM
pIC50 [3]: 9.74

CC(C)Oc1cc2nc([C@H]3CC[C@H](CCN4CCN5c6ccc(C7CCC(=O)NC7=O)cc6OCC5C4)CC3)cn2cc1C(=O)Nc1cnn2cccnc12 (stereo partly drawn) [Compound 100]
Dmax ([2]; 2 h incubation): 89%
DC50 [2, 6]: 17600 pM
DC50 [2, 7]: 17600 pM
pIC50 [3]: 9.19

CC(C)(O)c1cc2nn(C3CCC(CCN4CCN5c6c(F)cc(NC7CCC(=O)NC7=O)cc6OCC5C4)CC3)cc2cc1NC(=O)c1cccc(C(F)(F)F)n1 (stereo not drawn) [Compound 113]
Dmax ([2]; 2 h incubation): 89%
DC50 [2, 6]: 16800 pM
DC50 [2, 7]: 16100 pM
pIC50 [3]: 9.72

CN1C(=O)C2(CCN(CC[C@H]3CC[C@H](n4cc5cc(NC(=O)c6cccc(C(F)(F)F)n6)c(C(C)(C)O)cc5n4)CC3)CC2)c2ccc(C3CCC(=O)NC3=O)cc21 (stereo partly drawn) [Compound 121]
Dmax ([2]; 2 h incubation): 92%
DC50 [2, 6]: 14000 pM
DC50 [2, 7]: 10800 pM
pIC50 [3]: 10.00
